From patent US20080311589A1, “METHOD OF HIGH-THROUGHPUT SCREENING OF MOLECULES AND COMPOUNDS FOR THEIR EFFECTS ON BIOLOGICAL AND CHEMICAL PROCESSES” (priority 1999, published 2008)

Test system: Mv1Lu mink lung epithelial cells
Assay: 1536 well BrdU cytoblot
Assay type: cell-based
Conditions: 1536-well plate, approximately 500 cells per well
Description: FIG. 3. BrdU incorporation can be efficiently detected with a cytoblot in 1536 well plates in 2 μL droplets. 500 Mv1Lu mink lung epithelial cells were seeded in each well of a white, opaque 1536 well plate (Corning/Costar, Corning, N.Y.). The cells were seeded with or without […] TGF-β in 2 μL of 1% mink medium and allowed to incubate at 37° C. with 5% CO2. After 24 hours, 0.5 μL of 50 μM BrdU in 1% mink medium was added to the indicated wells, for a final concentration of 10 μM BrdU. The plate were incubated at 37° C. with 5% CO2 for an additional 12 hours and then an anti-BrdU cytoblot protocol was performed (see protocols). Wells are magnified as indicated.
Thus, the application of the cytoblot assay to plates containing a higher density of wells was tested. Mink lung cells were seeded into opaque, white 1536-well plates with each well containing approximately 500 cells. Next, the ability of TGF-β to prevent BrdU incorporation was assayed. […] The following protocol provides experimental detail.
The reagents to be tested were prepared in 1536 well plates (Greiner America, Lake Mary, Fla.), with one or more test compounds per well. If the test compounds were attached on solid support (beads), then the beads were distributed into individual wells of 1536 well white plate in acetonitrile. […]

Q: How did the BrdU incorporation turn out when “TGF-β: anti-mitogen transforming growth factor β, multifunctional polypeptide signaling factor” was run?
A: effectively prevents BrdU incorporation
